Test results reported in publication PMC6851324, “Design and development of stapled transmembrane peptides that disrupt the activity of G-protein–coupled receptor oligomers” (The Journal of Biological Chemistry, 2019).
Where a SMILES comes first, the peptide text is derived from it.

Tests used:
[1] = target: T1, trypsin from porcine pancreas (Sus scrofa, UniProt P00761); assay: Proteolytic stability against trypsin; format: in vitro ADME; conditions: pig, isolated enzyme trypsin; 55.5 μM peptide, 0.55 μg/ml trypsin from porcine pancreas, ammonium bicarbonate buffer pH 7.5, 37 °C, 15–480 min, intact peptide by RP-HPLC (Fmoc-Gly internal standard), n = 3, nonlinear regression fit; read-out: Half-life (min), trypsin
T1 construct: purchased Sigma; host or cells: porcine pancreas
T1 sequence (P00761 9-231): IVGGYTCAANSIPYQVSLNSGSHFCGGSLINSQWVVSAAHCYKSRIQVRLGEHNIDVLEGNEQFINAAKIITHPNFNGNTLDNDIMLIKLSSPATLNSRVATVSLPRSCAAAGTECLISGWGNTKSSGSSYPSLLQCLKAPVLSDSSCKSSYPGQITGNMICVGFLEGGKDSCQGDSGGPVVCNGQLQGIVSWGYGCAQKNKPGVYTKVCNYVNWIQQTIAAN
Procedure: (§1) Figure 4. Biophysical analysis of stapled peptides. A, amino acid sequence alignment of the targeted TM regions and disrupting peptides. Cys residues are in the reduced state. Blue bridges indicate the stapled amino acid residues. […] Yields, purity, and MALDI-TOF data are shown for the stapled peptides and negative control. B, CD analysis of 30–50 μM peptides at 20 °C. For proteolytic stability studies, the peptide solution (55.5 μM for trypsin and chymotrypsin and 11.1 μM for serum) was incubated in the presence of 0.55 μg/ml trypsin from porcine pancreas (E), α-chymotrypsin (F), or mouse serum (G) at 37 °C for the indicated times (indicated on the x axis). Data are mean ± S.E. (error bars) (n = 3) percentage of intact peptide normalized to t = 0. Proteolytic half-lives and putative cleavage sites (predicted using the Expasy bioinformatics server's model with a 50% probability of cleavage) are indicated at the bottom of each panel. Positive correlation between helicity and half-life in trypsin/chymotrypsin (C) or serum (D) was determined by two-tailed Pearson's correlation test. TEXT PRINTED IN THE PICTURE: (B) TM7-TAT: Ellipticity (%): 3.4 | (B) TM6-TAT: Ellipticity (%): 18.3 | (B) TM5-TAT: Ellipticity (%): 20.9 | (B) 8: Ellipticity (%): 58.3 | (B) 9: Ellipticity (%): 46.4 | (B) 10: Ellipticity (%): 36.8 | (B) 11: Ellipticity (%): 46 | (E) TM7-TAT: Half-life (min): 21; #Cleavage sites: 8 | (E) TM6-TAT: Half-life (min): 40; #Cleavage sites: 7 | (E) TM5-TAT: Half-life (min): 33; #Cleavage sites: 8 | (E) 8: Half-life (min): 307; #Cleavage sites: 0 | (E) 9: Half-life (min): 178; #Cleavage sites: 0 | (E) 10: Half-life (min): 75; #Cleavage sites: 6 | (E) 11: Half-life (min): 84; #Cleavage sites: 0 | (F) TM7-TAT: Half-life (min): 22; #Cleavage sites: 6 | (F) TM6-TAT: Half-life (min): 32; #Cleavage sites: 7 | (F) TM5-TAT: Half-life (min): 28; #Cleavage sites: 7 | (F) 8: Half-life (min): 425; #Cleavage sites: 4 | (F) 9: Half-life (min): 198; #Cleavage sites: 3 | (F) 10: Half-life (min): 63; #Cleavage sites: 2 | (F) 11: Half-life (min): 79; #Cleavage sites: 4 | (G) TM7-TAT: Half-life (hours): 0.46 | (G) TM6-TAT: Half-life (hours): 0.55 | (G) TM5-TAT: Half-life (hours): 0.81 | (G) 8: Half-life (hours): ≥18 | (G) 9: Half-life (hours): 14.7 | (G) 10: Half-life (hours): 11.7 | (G) 11: Half-life (hours): 5.3 DOUBTS OF THE COPYIST ABOUT THIS PICTURE: Panel A table (Yield, Rt, Purity, [M+H+] calc., [M+H+] Peak Found for 7-11) left out as synthesis and mass-spectrum characterisation data; uncertain whether [M+H+] calc. should count as a molecular weight
(§2) Dose–response curves were fitted using a four-parameter logistic nonlinear regression mode. Peptide stability data were fitted using a nonlinear regression mode for dissociation kinetics. All statistical tests, curve fitting, and graphing were performed using GraphPad Prism 8 (GraphPad Software, La Jolla, CA).
To 100 μl of peptide solution (100 μM, dissolved in ammonium bicarbonate buffer, pH 7.5), 60 μl of ammonium bicarbonate buffer (pH 7.5) was added, together with 20 μl of temperature-equilibrated (37 ± 1 °C) trypsin (5 μg/ml) from porcine pancreas (Sigma, 13,000–20,000 BAEE units/mg of protein). Peptides were incubated for 15, 30, 60, 120, 240, and 480 min, and then MeOH (HPLC Grade) + 0.05% TFA was added. The samples were then centrifuged (15,000 rpm), and the supernatant was analyzed, using Fmoc-Gly (10 μl, 0.2 mM) as an internal standard. The digestion at each time point was repeated three times to give the average values along with S.D. The amount of intact peptide that remained in the mixture was quantified by RP-HPLC. The experiment was repeated twice on different days.

[2] = target: T2, α-chymotrypsin from bovine pancreas (Bos taurus, UniProt P00766, DEL14-15/DEL147-148); assay: Proteolytic stability against chymotrypsin; format: in vitro ADME; conditions: cattle, isolated enzyme chymotrypsin; 55.5 μM peptide, 0.55 μg/ml α-chymotrypsin from bovine pancreas, ammonium bicarbonate buffer pH 7.5, 37 °C, 15–480 min, intact peptide by RP-HPLC, n = 3, nonlinear regression fit; read-out: Half-life (min), α-chymotrypsin
T2 construct: purchased Sigma Type II; host or cells: bovine pancreas
Procedure: as §1, §2
To 100 μl of peptide solution (100 μM, dissolved in ammonium bicarbonate buffer, pH 7.5), 60 μl of ammonium bicarbonate buffer (pH 7.5) was added, together with 20 μl of temperature-equilibrated (37 ± 1 °C) α-chymotrypsin (5 μg/ml) from bovine pancreas (Sigma, Type II, activity > 40 units/mg protein). Peptides were incubated for 15, 30, 60, 120, 240, and 480 min, and then MeOH (HPLC grade) + 0.05% TFA was added. The samples were then centrifuged (15,000 rpm), and supernatant was analyzed in a similar manner as described above. The experiment was repeated twice on different days.

5-HT2AR–CB1R heteromers = system: 5-HT2AR–CB1R heteromers; set-up: method as in 2 sources, ref 16 = [16]; PMID 26158621; doi:10.1371/journal.pbio.1002194; 16. Viñals X. , Moreno E. , Lanfumey L. , Cordomí A. , Pastor A. , de La Torre R. , Gasperini P. , Navarro G. , Howell L. A. , Pardo L. , Lluís C. , Canela E. I. , McCormick P. J. , Maldonado R. , and ||| ref 4, unpublished observations; conditions: synthetic TM-mimicking peptides fused to HIV-TAT; cited from earlier work
Stability in mouse serum = format: in vitro ADME; conditions: 11.1 μM peptide, fresh nonsterile mouse serum (200 μl serum + 25 μl peptide solution, pH 7.5 buffer with 10% DMSO), 37 °C, quench 15% TCA in acetonitrile, HPLC, n = 3; read-out: Half-life (hours), mouse serum (converted)
Procedure: as §1, §2
To 200 μl of fresh nonsterile mouse serum was added 25 μl of peptide solution (100 μM, dissolved in ammonium bicarbonate buffer, pH 7.5, containing 10% DMSO), and the mixture was incubated at 37 °C. At the specified time, an aliquot of incubation mixture was withdrawn and quenched by the addition of an equal volume of 15% TCA in acetonitrile to precipitate out serum proteins over ice for 30 min. The mixture was then centrifuged at 13,500 rpm for 10 min, and the supernatant was collected and analyzed by HPLC in a similar manner as described previously. The experiment was repeated twice on different days.

[3] = target: T3, 5-HT2AR N-terminally tagged with LgBiT or SmBiT, CMV promoter (human, UniProt P28223 1-471); assay: split reporter (BiFC, NanoBiT); NanoBiT orientation screens: LgBiT and SmBiT receptor fusions (C- or N-terminal, CMV promoter) transiently co-transfected in HEK293 cells at 50 or 100 ng of receptor/well, compared with each construct alone; live cells, 24 h post-transfection, furimazine substrate; conditions: partners not purified
T3 construct: 5-hydroxytryptamine 2A receptor (5-HT2AR), human, cloned from the cDNA Resource Center plasmid; also called SmBiT–5-HT2AR; SmBiT 5-HT2AR; source: HEK293, transiently transfected (CMV promoter), live cells; not shown: LgBiT or SmBiT (one of the two on each copy; SmBiT in the peptide screen), N-terminal, kept
T3 sequence (P28223 whole entry, the tested form may be a part): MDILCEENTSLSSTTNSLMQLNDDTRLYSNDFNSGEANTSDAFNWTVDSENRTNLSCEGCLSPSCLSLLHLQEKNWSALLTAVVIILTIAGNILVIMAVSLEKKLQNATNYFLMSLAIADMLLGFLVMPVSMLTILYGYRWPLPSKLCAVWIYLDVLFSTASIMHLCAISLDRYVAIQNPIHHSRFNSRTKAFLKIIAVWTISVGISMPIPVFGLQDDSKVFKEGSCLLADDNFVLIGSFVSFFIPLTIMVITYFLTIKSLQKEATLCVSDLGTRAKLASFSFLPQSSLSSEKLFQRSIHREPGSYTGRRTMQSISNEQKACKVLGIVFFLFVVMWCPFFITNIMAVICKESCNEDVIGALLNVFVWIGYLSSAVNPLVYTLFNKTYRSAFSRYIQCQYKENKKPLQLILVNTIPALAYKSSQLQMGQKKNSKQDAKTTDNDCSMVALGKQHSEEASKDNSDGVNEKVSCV

fold change of luminescence over the individual receptor construct [3] [fold]	Molecule	half-life at 55.5 μM [1] [min]	half-life at 55.5 μM [2] [min]	disruption of 5-HT2AR–CB1R heteromers (previous studies) (5-HT2AR–CB1R heteromers)	half-life at 11.1 μM (Stability in mouse serum) [h]
–	CC[C@H](C)[C@H](NC(=O)[C@@H](NC(=O)[C@@H]1CCCN1C(=O)[C@H](CC(N)=O)NC(=O)[C@@H](NC(=O)[C@@H](NC(=O)[C@H](CO)NC(=O)[C@H](CC(N)=O)NC(=O)[C@H](CC(C)C)NC(=O)[C@H](CC(C)C)NC(=O)[C@H](CS)NC(=O)[C@H](CC(C)C)NC(=O)[C@H](CCSC)NC(=O)[C@H](CO)NC(=O)[C@H](CS)NC(=O)[C@H](Cc1ccccc1)NC(=O)[C@H](C)NC(=O)[C@H](Cc1ccccc1)NC(=O)[C@@H](NC(=O)[C@@H](NC(=O)[C@H](CCCCN)NC(=O)[C@@H](NC(=O)[C@@H](N)CC(C)C)[C@@H](C)CC)[C@@H](C)O)C(C)C)[C@@H](C)O)C(C)C)[C@@H](C)CC)C(=O)N[C@@H](Cc1ccc(O)cc1)C(=O)N[C@@H](C)C(=O)N[C@@H](CC(C)C)C(=O)N[C@@H](CCCNC(=N)N)C(=O)NCC(=O)N[C@@H](CCCNC(=N)N)C(=O)N[C@@H](CCCCN)C(=O)N[C@@H](CCCCN)C(=O)N[C@@H](CCCNC(=N)N)C(=O)N[C@@H](CCCNC(=N)N)C(=O)N[C@@H](CCC(N)=O)C(=O)N[C@@H](CCCNC(=N)N)C(=O)N[C@@H](CCCNC(=N)N)C(=O)N[C@@H](CCCNC(=N)N)C(=O)O [TM7-TAT, reference compound] (H-LIKTVFAFCSMLCLLNSTVNPIIYALRGRKKRRQRRR-OH)	21	22	did not disrupt the heteromer	0.46
~200	CB1R N-terminally tagged with LgBiT or SmBiT, CMV promoter (receptor, human, UniProt P21554 1-472, looked up, cannabinoid receptor type 1 (CB1R), human, cloned from the cDNA Resource Center plasmid; also called LgBiT–CB1R; LgBT–CB1R; source: HEK293, transiently transfected (CMV promoter), live cells; not shown: LgBiT or SmBiT (one of the two on each copy; LgBiT in the peptide screen), N-terminal, kept) MKSILDGLADTTFRTITTDLLYVGSNDIQYEDIKGDMASKLGYFPQKFPLTSFRGSPFQEKMTAGDNPQLVPADQVNITEFYNKSLSSFKENEENIQCGENFMDIECFMVLNPSQQLAIAVLSLTLGTFTVLENLLVLCVILHSRSLRCRPSYHFIGSLAVADLLGSVIFVYSFIDFHVFHRKDSRNVFLFKLGGVTASFTASVGSLFLTAIDRYISIHRPLAYKRIVTRPKAVVAFCLMWTIAIVIAVLPLLGWNCEKLQSVCSDIFPHIDETYLMFWIGVTSVLLLFIVYAYMYILWKAHSHAVRMIQRGTQKSIIIHTSEDGKVQVTRPDQARMDIRLAKTLVLILVVLIICWGPLLAIMVYDVFGKMNKLIKTVFAFCSMLCLLNSTVNPIIYALRSKDLRHAFRSMFPSCEGTAQPLDNSMGDSDCLHKHANNAASVHRAAESCIKSTVKIAKVTMSVSTDTSAEAL	–	–	–	–
